# Results reported in ChEMBL document CHEMBL1121773, “Interaction of aromatic dyes with the coenzyme A binding site of choline acetyltransferase” (J Med Chem, 1981).
# Test system: Choline O-acetyltransferase (squid)
# Assay: Compound was tested for inhibition of choline acetyltransferase isolated from squid head ganglia; No inhibition at limit of solubility (4.4*10e-3 M)
smiles,measurement,value
O=S(=O)(O)c1ccc2ccccc2c1Nc1ccccc1,Ki,No inhibition at limit of solubility
